Laboratory results: ChEMBL document CHEMBL6121001, “Benzimidazole analogues active against adult Schistosoma mansoni: SAR analyses, In vivo efficacy in mice, and preliminary mechanistic studies as potential inhibitors of hemozoin formation” (Eur J Med Chem, 2025)

Experiment: Apparent permeability of compound at 1 mM incubated for 4 hrs by PAMPA based LC-MS/MS analysis
Type: ADME

Structure (SMILES) | Papp at 4 h, 1000 µM [×10⁻⁶ cm/s]
Oc1ncccc1CN1CCC(Nc2nc3ccccc3n2Cc2ccc(C(F)(F)F)cc2)CC1 | 0.18
FC(F)(F)c1ccc(Cn2c(NC3CCN(Cc4ccccc4)CC3)nc3ccccc32)cc1 | 18
Oc1ccccc1CN1CCC(Nc2nc3ccccc3n2Cc2ccc(C(F)(F)F)cc2)CC1 | 23
